Reference: US12649719B2, “Modulators of hemoglobin” (Global Blood Therapeutics, Inc., priority 2020, dated 2026)

What was measured:
Hb = target: T1, Hb (Homo sapiens, UniProt P68871+P69905); test: Whole blood assay: oxygen equilibrium curves (Hemox Analyzer), change in O2 affinity of Hb; type: cell-based; details: whole blood incubated 1 h at 37° C., equimolar ratio of hemoglobin to compound; sodium salts of 2B (Enantiomer 1), 4B, 5B used
T1 construct: from tissue
Procedure: Oxygen equilibrium curves (OECs) were collected using a TCS Hemox Analyzer (TCS Scientific Company, New Hope, PA, USA) to measure changes in the binding affinity of O2 to Hb. Whole blood was incubated for 1 h at 37° C. with the indicated compounds in an equimolar ratio of hemoglobin to compound and diluted into TES (2-[[1,3-dihydroxy-2-(hydroxymethyl)propan-2-yl]amino]ethanesulfonic acid)/saline buffer prior to measurements. The diluted samples were then oxygenated with compressed air within the Hemox Analyzer and the OECs were collected during deoxygenation as previously described (Guarnone et al., Haematologica, 1995, 80, 426-430). p 50 (partial pressure of 02 at which Hb is 50% saturated with 02) values were obtained using a non-linear regression analysis. Percentage change in p 50 [Δp50(%)]was calculated as follows: Δp50(%)=[(p 50 of control)-p 50 with compound)/p 50 control]x 100. The sodium salts of compounds 2B (Enantiomer 1), 4B, and 5B described above were used.

Rat PK, oral gavage = type: in vivo; details: fasted male Sprague-Dawley rats, oral gavage 2 mg/kg and/or 10 mg/kg, sodium salt of 5B used; for T1/2: blood; for half-life: male, Sprague-Dawley, rat, whole blood, po
Procedure: A group of fasted male Sprague-Dawley rats were dosed via oral gavage at 2 mg/kg and/or 10 mg/kg with test articles formulated in 0.5% methylcellulose suspension with 0.01% polysorbate 80 in PBS (phosphate buffered saline). Blood samples were collected through jugular vein at pre-selected time points. Blood samples were prepared by protein precipitation with ACN, vortexed and then centrifuged before supernatants were transferred for bioanalysis. Test article concentrations were measured by HPLC-MS-MS. Pharmacokinetic parameters were calculated using non-compartment analysis. The T1/2 was calculated via a linear regression of the terminal phase of the blood-time concentration profile.
Results for various compounds disclosed herein (sodium salt of compound 5B described above was used) and select reference compounds (Compound A and Compound B) are summarized in Table 5A and Table 5B.

T1 sequence (P69905 2-142 limits assumed): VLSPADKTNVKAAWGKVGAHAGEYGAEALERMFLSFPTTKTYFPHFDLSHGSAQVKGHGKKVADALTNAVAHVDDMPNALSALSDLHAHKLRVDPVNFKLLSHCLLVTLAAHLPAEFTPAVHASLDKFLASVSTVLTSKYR
T1 sequence (P68871 2-147 limits assumed): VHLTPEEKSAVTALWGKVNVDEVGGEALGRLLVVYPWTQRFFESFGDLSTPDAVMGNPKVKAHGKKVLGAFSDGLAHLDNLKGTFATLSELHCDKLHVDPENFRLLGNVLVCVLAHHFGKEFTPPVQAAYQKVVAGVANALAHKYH

| Delta-p50 (%) (Hb) | T1/2 (Rat PK, oral gavage) | half-life (Rat PK, oral gavage) | Compound |
| --- | --- | --- | --- |
| 14.15% | – | – | O=Cc1c(O)cccc1OCC1CSCCN1C(=O)c1cccnc1C(=O)O (single isomer, unassigned) [Compound 6B (Enantiomer 1), 3-[3-[(2-formyl-3-hydroxyphenoxy)methyl]thiomorpholine-4-carbonyl]pyridine-2-carboxylic acid] |
| 5.09% | – | – | O=Cc1c(O)cccc1OCC1CSCCN1C(=O)c1ccccc1CC(=O)O (stereo not drawn) [Compound 6A, 2-(2-{3-[(2-formyl-3-hydroxyphenoxy)methyl]thiomorpholine-4-carbonyl}phenyl)acetic acid] |
| 77.13% | – | 2.17 days | O=Cc1c(O)cccc1OC[C@@H]1CCCCN1C(=O)c1ccccc1CCC(=O)O [Compound 7A, 3-{2-[(2S)-2-[(2-formyl-3-hydroxyphenoxy)methyl]piperidine-1-carbonyl]phenyl}propanoic acid] |
| 55.01% | – | 4.25 days | O=Cc1c(O)cccc1OC[C@@H]1COCCN1C(=O)c1ccccc1CCC(=O)O [Compound 8A, 3-{2-[(3S)-3-[(2-formyl-3-hydroxyphenoxy)methyl]morpholine-4-carbonyl]phenyl} propanoic acid] |
| 46.78% | – | 3.7 days | O=Cc1c(O)cccc1OC[C@@H]1CSCCN1C(=O)c1ccccc1CCC(=O)O [Compound 9A, 3-{2-[(3R)-3-[(2-formyl-3-hydroxyphenoxy)methyl]thiomorpholine-4-carbonyl]phenyl}propanoic acid] |
| – | – | 1.08 days | O=Cc1c(O)cccc1OC[C@@H]1CCCCN1C(=O)c1ccccc1 [Reference Compound A, reference compound] |
| – | – | 1.24 days | O=Cc1c(O)cccc1OC[C@@H]1COCCN1C(=O)c1ccccc1 [Reference Compound B, reference compound] |

Further lines, the compound ahead of its results:

| Compound | Delta-p50 (%) (Hb) | T1/2 (Rat PK, oral gavage) | half-life (Rat PK, oral gavage) |
| --- | --- | --- | --- |
| O=Cc1c(O)cccc1OCC1CSCCN1C(=O)c1cccnc1CC(=O)O (single isomer, unassigned) [Compound 2B (Enantiomer 1), 2-{3-[3-[(2-formyl-3-hydroxyphenoxy)methyl]thiomorpholine-4-carbonyl]pyridin-2-yl} acetic acid] | 10.72% | – | – |
| O=Cc1c(O)cccc1OCC1CSCCN1C(=O)c1ccccc1C(=O)O (single isomer, unassigned) [Compound 5A (Enantiomer 1), 2-(3-((2-formyl-3-hydroxyphenoxy)methyl)thiomorpholine-4-carbonyl) benzoic acid] | 11.04% | 213 h | – |
| O=Cc1c(O)cccc1OCC1CSCCN1C(=O)c1ccccc1C(=O)O (single isomer, unassigned) [Compound 5A (Enantiomer 2), 2-(3-((2-formyl-3-hydroxyphenoxy)methyl)thiomorpholine-4-carbonyl)benzoic acid] | 19.57% | 13 h | – |
| O=Cc1c(O)cccc1OC[C@@H]1CCCCN1C(=O)c1ccccc1C(=O)O [Compound 1A, 2-[(2S)-2-[(2-formyl-3-hydroxyphenoxy)methyl]piperidine-1-carbonyl]benzoic acid] | 66.43% | – | 4.58 days |
| O=Cc1c(O)cccc1OC[C@@H]1CCCCN1C(=O)c1cccnc1C(=O)O [Compound 1B, 3-[(2S)-2-[(2-formyl-3-hydroxyphenoxy)methyl]piperidine-1-carbonyl]pyridine-2-carboxylic acid] | 0.4% | – | 0.489 days |
| O=Cc1c(O)cccc1OC[C@@H]1COCCN1C(=O)c1ccccc1C(=O)O [Compound 2A, 2-[(3S)-3-[(2-formyl-3-hydroxyphenoxy)methyl]morpholine-4-carbonyl]benzoic acid] | 4.19% | – | – |
| O=Cc1c(O)cccc1OC[C@@H]1COCCN1C(=O)c1ccccc1CC(=O)O [Compound 3A, 2-{2-[(3S)-3-[(2-formyl-3-hydroxyphenoxy)methyl]morpholine-4-carbonyl]phenyl}acetic acid] | 11.72% | – | – |
| O=Cc1c(O)cccc1OC[C@@H]1COCCN1C(=O)c1cccnc1C(=O)O [Compound 3B, 3-[(3S)-3-[(2-formyl-3-hydroxyphenoxy)methyl]morpholine-4-carbonyl]pyridine-2-carboxylic acid] | 0.65% | – | – |
| O=Cc1c(O)cccc1OC[C@@H]1CCCCN1C(=O)c1ccccc1CC(=O)O [Compound 4A, 2-{2-[(2S)-2-[(2-formyl-3-hydroxyphenoxy)methyl]piperidine-1-carbonyl]phenyl} acetic acid] | 63.6% | – | 3.72 days |
| O=Cc1c(O)cccc1OC[C@@H]1COCCN1C(=O)c1cccnc1CC(=O)O [Compound 4B, 2-{3-[(3S)-3-[(2-formyl-3-hydroxyphenoxy)methyl]morpholine-4-carbonyl]pyridin-2-yl} acetic acid] | −8.28% | – | – |
| O=Cc1c(O)cccc1OC[C@@H]1CCCCN1C(=O)c1cccnc1CC(=O)O [Compound 5B, (S)-2-(3-(2-((2-formyl-3-hydroxyphenoxy)methyl)piperidine-1-carbonyl)pyridin-2-yl)acetic acid] | −3.32% | – | 5 days |
